Values of other authors in patent US20160206617A1, “COMPOSITIONS AND THERAPEUTIC METHODS FOR ACCELERATED PLAQUE REGRESSION” (RESVERLOGIX CORP., priority 2013, published 2016).
Like-named read-outs stand apart in the source and are kept apart here.

How the values were obtained:
ApoA-I = settings: in vitro and in vivo
atherosclerosis [1] = settings: REVERSAL; 2 years; pravastatin 40 mg daily, atorvastatin 80 mg daily
atherosclerosis [2] = settings: SATURN; 2 years; rosuvastatin 40 mg daily, atorvastatin 80 mg daily
atherosclerosis [3] = system: atherosclerosis

Row | SMILES | effect on plasma levels of ApoA-I and HDL (ApoA-I) | median change in PAV (atherosclerosis [1]) | median change in PAV (atherosclerosis [2]) [%] | median change PAV (atherosclerosis [3]; ASTEROID, 2 years, rosuvastatin 40 mg daily, all patients) [%] | median decrease in PAV from baseline (atherosclerosis [3]; ASTEROID, subgroup with average HDL-C during treatment less than 40 mg/dL) [%] | PAV decrease (median change) (atherosclerosis [3]; FIG. 8, rosuvastatin 40 mg without RVX-208, after 104 weeks, below median HDL) [%]
1 | COc1cc(OC)c2c(=O)[nH]c(-c3cc(C)c(OCCO)c(C)c3)nc2c1 [RVX-208, 2-(4-(2-hydroxyethoxy)-3,5-dimethylphenyl)-5,7-dimethoxyquinazolin-4(3H)-one] | increase plasma levels of ApoA-I and HDL | – | – | – | – | –
2 | CC(C)c1c(C(=O)Nc2ccccc2)c(-c2ccccc2)c(-c2ccc(F)cc2)n1CC[C@@H](O)C[C@@H](O)CC(=O)O [atorvastatin] | – | +0.2% | −0.99 | – | – | –
3 | CC(C)c1nc(N(C)S(C)(=O)=O)nc(-c2ccc(F)cc2)c1/C=C/[C@@H](O)C[C@@H](O)CC(=O)O [rosuvastatin, (3R,5S,6E)-7-[4-(4-fluorophenyl)-2-(N-methylmethanesulfonamido)-6-(propan-2-yl)pyrimidin-5-yl]-3,5-dihydroxyhept-6-enoic acid] | – | – | −1.22 | −0.79 | −1.3 | 1.30
